In brackets after ≈: the same amount, converted by molar mass.
Key:
[1] = system: mixture of Asaia bogorensis, Asaia lannaensis, Gluconobacter oxydans and Gluconacetobacter liquefaciens; settings: individual active ingredient; substrate iced tea; 200 cfu/mL per bacterium in the mixture
Excerpt: (§1) A drink was contaminated with a particular amount of a mixture of microorganisms and a mixture of preservatives was investigated for efficacy compared to the individual substances. The mixture of bacteria is composed of Asaia bogorensis, Asaia lannaensis, Gluconobacter oxydans and Gluconacetobacter liquefaciens.
(§2) The following relationships apply: QA/Qa+QB/Qb+QC/Qc=SI • Qa=concentration of substance A which is the MIC • Qb=concentration of substance B which is the MIC • Qc=concentration of substance C which is the MIC • QA=concentration of substance A in the concentration of A/B/C at which microbial growth is suppressed • QB=concentration of substance B in the concentration of A/B/C at which microbial growth is suppressed • QC=concentration of substance C the concentration of A/B/C at which microbial growth is suppressed • SI=Synergy Index • SI=1 means additivity • SI>1 means antagonism • SI<1 means synergism

[2] = system: mixture of Asaia bogorensis, Asaia lannaensis, Gluconobacter oxydans and Gluconacetobacter liquefaciens; test: microbe, parasite or virus in culture; settings: 168 h, read-out: MIC ppm after one week
Excerpt: as §1, §2

Structure (SMILES)	MIC ppm after one week [1] [µg/mL]	MIC [2] [µg/mL]
O=S([O-])OS(=O)[O-].[K+].[K+] [Potassium disulphite, potassium disulphite]	60	60
C/C=C/C=C/C(=O)[O-].[K+] [Potassium sorbate, potassium sorbate]	–	750
COC(=O)OC(=O)OC [Dimethyl dicarbonate, dimethyl dicarbonate]	300 (≈ 2240 µM)	300 (≈ 2240 µM)
O=C([O-])c1ccccc1.[Na+] [Sodium benzoate, sodium benzoate]	550	–
